The values that follow come from patent US4188387A, “Amino-aryl 1,24-triazines useful in the treatment of diverse pain” (priority 1977, dated 1980).

Entries after “also recorded” stand apart in the source; their conditions may differ. Where two headings read alike, the source gives them in different places. Where only a bound is given, the exact number is not on record here.

The nature of one data set: Solubility. The format is physicochemical. Conditions: solvents named in the value.
The nature of data set [1]: Analgesic activity according to […] et al. (phenyl benzoquinone injection). The data set is classed as in vivo. The settings on record: oral, 30 minutes before the injection of phenyl benzoquinone. As to the method:
The compounds are administered orally 30 minutes before the injection of phenyl benzoquinone.

The next data set concerns dental pulp. The experiment in a line: Electric stimulation of dental pulp in rabbits (J. CHEYMOL et al.). The data set is classed as in vivo.
Data set [2] can be described thus: Ulcerogenic effect (criteria of PFEIFER and LEWALDOWFKI). The format is in vivo. The settings on record: criteria of C. J. PFEIFER and L. G. LEWALDOWFKI
An excerpt:
J. PFEIFER and L. G. LEWALDOWFKI (Arch. Int. Pharmacodyn. 1971, 190, 5-13).

The nature of the next data set: in vivo. The settings on record: mouse. On the procedure: The toxicity study was carried out on the conventional mouse, weighing about 20 g.
The substances were administered orally and intraperitoneally.
The LD50 was calculated in accordance with the method of L. C. MILLER and M. L. TAINTER, Proc. Soc. exper.

Where [3] appears, read: ip, intraperitoneal, read-out: LD50 intraperitoneally.

With `CN(C)c1ccc(-c2n[nH]c(=O)nc2-c2ccc(N(C)C)cc2)cc1`, the solubility result in “Solubility” is “Soluble in aqueous dilute bases and acids; also recorded: poorly soluble in alcohol, benzene, methylene chloride, chloroform; also recorded: Insoluble in ether”.

On to `CC(=O)Oc1ccccc1C(=O)O` [Acetylsalicylic acid, reference compound], for which the ED50 (as a rule, the dose that gives a 50% effect, or the effect in half of the subjects) in data set [1] was found to be 100 mg/kg.

In data set [1], `O=C(OCC(O)CO)c1ccccc1Nc1ccnc2cc(Cl)ccc12` (stereo not drawn) [Glaphenine, reference compound] registered an ED50 of 36 mg/kg.

Consider `CN(C)c1ccc(-c2nc(=O)n(C)nc2-c2ccc(N(C)C)cc2)cc1` [ST 729, 2-methyl 3-oxo 5,6-di(paradimethylamino-phenyl) as triazine], for which the ED50 in data set [1] came to 1 mg/kg. Moreover, the “analgesic activity in electric stimulation of dental pulp” value in the data set with dental pulp is “confirmed”. Moreover, the ulcerogenic effect entry in data set [2] is given as “without ulcerogenic effect”. Besides, the solubility entry in the data set “Solubility” is “insoluble in water, dilute bases, benzene, and ether; also recorded: Soluble in dilute acids, alcohol and methylene chloride”.

For the molecule `CN(C)c1ccc(-c2n[nH]c(=O)nc2-c2ccccc2Cl)cc1` [ST 745], the solubility entry in the data set “Solubility” is “Insoluble in water, benzene, and ether; also recorded: Soluble in dilute bases and acids, ethanol, and methylene chloride”.

On to `CN(C)c1ccc(-c2nn(C)c(=O)nc2-c2ccccc2Cl)cc1` [ST 746, 2-methyl 3-oxo 5(orthochlorophenyl) 6(paradimethylaminophenyl) as. triazine], for which the LD50 (usually the dose at which mortality reaches 50%) turned out to be 300 mg/kg in the data set “in vivo” (setting [3]) and 1000 mg/kg in the data set “in vivo” (oral, read-out: LD50 orally). Also, it took a dose of 100 mg/kg to reach the 50% effect level in data set [1] (ED50). Also, in the data set “Solubility”, the solubility result was “Insoluble in water, dilute bases and ether; also recorded: Soluble in methylene chloride, benzene, alcohol, chloroform and dilute acids”.

Regarding `CN(C)c1ccc(-c2nn(C)c(=O)nc2-c2ccc(Cl)cc2)cc1` [ST 761, 2-methyl 3-oxo 5(parachlorophenyl) 6(p-dimethylaminophenyl) as triazine], the LD50 in the data set “in vivo” (setting [3]) is 400 mg/kg; in “in vivo” (oral, read-out: LD50 orally), 1500 mg/kg. The molecule also returned a median effective dose (ED50) in data set [1] of 4 mg/kg. In “Solubility”, the solubility result was “Soluble in dilute acids, CH2 Cl2, and chloroform; also recorded: Insoluble in water, dilute bases, and ether”.

Regarding `CN(C)c1ccc(-c2nc(=O)n(CCN3CCOCC3)nc2-c2ccc(N(C)C)cc2)cc1` [ST 767, 2 Ethyl morpholino 3-oxo 5,6 di(paradimethylaminophenyl) as. triazine], in “in vivo” (oral, read-out: LD50 orally), the LD50 was over 1000 mg/kg. In data set [1], this molecule registered an ED50 of 1 to 50 mg/kg. In the data set “Solubility”, the solubility entry is “Soluble in dilute aqueous acids, alcohol, methylene chloride, and chloroform; also recorded: Insoluble in water and dilute bases, benzene and ether”.

Take `CCN(CC)c1ccc(-c2nnc(O)nc2-c2ccc(N(CC)CC)cc2)cc1` [ST 770, 3-oxo 5,6-di(paradiethylaminophenyl) as triazine]: in the data set “Solubility”, the solubility result is “Soluble in dilute acids and bases, alcohol, benzene, and methylene chloride”.

Regarding `CCN(CC)c1ccc(-c2nc(=O)n(C)nc2-c2ccc(N(CC)CC)cc2)cc1` [ST 771, 2-methyl 3-oxo 5,6-di(paradiethylaminophenyl) as triazine], the LD50 in “in vivo” (oral, read-out: LD50 orally) is over 1000 mg/kg. The solubility entry in the data set “Solubility” is “Soluble in dilute aqueous acids, alcohol, methylene chloride, and chloroform; also recorded: Insoluble in water, dilute bases, benzene, ether”.

For the molecule `C=CCn1nc(-c2ccc(N(C)C)cc2)c(-c2ccc(N(C)C)cc2)nc1=O` [ST 776, 2-allyl 3-oxo 5,6-di(paradimethylaminophenyl) as triazine], the LD50 in the data set “in vivo” (oral, read-out: LD50 orally) is over 1000 mg/kg. The same molecule had an ED50 in data set [1] of 1 to 50 mg/kg. Also, the “analgesic activity in electric stimulation of dental pulp” value in the data set with dental pulp is recorded as “confirmed”. The ulcerogenic effect result in data set [2] was “without ulcerogenic effect”. For the same molecule, the solubility entry in the data set “Solubility” was “Soluble in dilute aqueous acids, alcohol, benzene, methylene chloride, and chloroform; also recorded: Insoluble in water, bases, and ether”.

As to `CN(C)CCCn1nc(-c2ccc(N(C)C)cc2)c(-c2ccc(N(C)C)cc2)nc1=O` [ST 778], the LD50 in the data set “in vivo” (oral, read-out: LD50 orally) is over 1000 mg/kg. In data set [1], this molecule gave an ED50 of 1 to 50 mg/kg. In “Solubility”, the solubility result was “Soluble in dilute aqueous acids, alcohol, benzene, methylene chloride, and chloroform; also recorded: Insoluble in water, dilute bases and ether”.

For the molecule `CCN(CC)CCn1nc(-c2ccc(N(C)C)cc2)c(-c2ccc(N(C)C)cc2)nc1=O` [ST 790, 2-diethylaminoethyl 3-oxo 5,6(paradimethylaminophenyl) as triazine], the LD50 in “in vivo” (oral, read-out: LD50 orally) was over 1000 mg/kg. The same molecule showed an ED50 in data set [1] of 1 to 50 mg/kg. In “Solubility”, the solubility result is “Soluble in dilute aqueous acids, alcohol, benzene, methylene chloride, and chloroform; also recorded: Insoluble in bases, water, and ether”.

As to `CN(C)c1ccc(-c2nc(=S)n(C)nc2-c2ccc(N(C)C)cc2)cc1` [ST 811, 2-methyl 3-thione 5,6-di(paradimethylaminophenyl)as triazine], the LD50 in “in vivo” (oral, read-out: LD50 orally) is over 1000 mg/kg. This molecule had an ED50 in data set [1] of 1 to 50 mg/kg. In the data set “Solubility”, the solubility result is “Soluble in aqueous dilute acids, alcohols, and methylene chloride; also recorded: Insoluble in water, aqueous bases, and ether”.
